Measurements published in article PMC8398766, “Do Small Molecules Activate the TrkB Receptor in the Same Manner as BDNF? Limitations of Published TrkB Low Molecular Agonists and Screening for Novel TrkB Orthosteric Agonists” (Pharmaceuticals, 2021).

Experiments:
Test in all cases: BioPrint Profile Panel
Assay type in all cases: binding
5-HT transporter = molecular target: T1, 5-HT transporter (Homo sapiens, UniProt P31645); settings: Antagonist, read-out: % of specific inhibition
T1 construct: purchased Eurofins Discovery (Cerep) BioPrint Profile Panel
T1 sequence (P31645 whole entry): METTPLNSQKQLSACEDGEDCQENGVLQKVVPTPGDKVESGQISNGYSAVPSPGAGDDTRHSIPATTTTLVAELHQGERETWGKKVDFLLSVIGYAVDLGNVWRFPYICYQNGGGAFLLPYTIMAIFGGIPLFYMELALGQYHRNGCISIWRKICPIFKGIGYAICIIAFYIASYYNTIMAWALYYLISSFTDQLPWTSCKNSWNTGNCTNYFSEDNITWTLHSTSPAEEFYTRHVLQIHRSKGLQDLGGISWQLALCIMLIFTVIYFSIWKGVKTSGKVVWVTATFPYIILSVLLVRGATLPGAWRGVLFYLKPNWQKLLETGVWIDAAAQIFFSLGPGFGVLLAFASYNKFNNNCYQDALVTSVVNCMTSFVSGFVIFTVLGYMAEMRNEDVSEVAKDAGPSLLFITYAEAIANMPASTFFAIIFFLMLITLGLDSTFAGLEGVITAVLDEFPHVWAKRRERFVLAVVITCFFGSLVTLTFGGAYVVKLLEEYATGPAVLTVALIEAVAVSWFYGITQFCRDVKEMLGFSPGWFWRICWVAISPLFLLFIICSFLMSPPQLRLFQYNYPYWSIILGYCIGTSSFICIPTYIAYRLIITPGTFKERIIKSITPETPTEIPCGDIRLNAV
Source text: (§1) The BioPrint® Profile Panel service offered by Eurofins Discovery (Poitiers, France) was chosen to perform selectivity analysis.

5-HT1A = molecular target: T2, 5-HT1A (Homo sapiens, UniProt P08908); settings: Agonist, Receptor, read-out: % of specific inhibition
T2 construct: purchased Eurofins Discovery (Cerep) BioPrint Profile Panel
Source text: as §1

5-HT1D = molecular target: T3, 5-HT1D (Rattus norvegicus, UniProt P28565); settings: Agonist, Receptor, read-out: % of specific inhibition
T3 construct: purchased Eurofins Discovery (Cerep) BioPrint Profile Panel
T3 sequence (P28565 whole entry): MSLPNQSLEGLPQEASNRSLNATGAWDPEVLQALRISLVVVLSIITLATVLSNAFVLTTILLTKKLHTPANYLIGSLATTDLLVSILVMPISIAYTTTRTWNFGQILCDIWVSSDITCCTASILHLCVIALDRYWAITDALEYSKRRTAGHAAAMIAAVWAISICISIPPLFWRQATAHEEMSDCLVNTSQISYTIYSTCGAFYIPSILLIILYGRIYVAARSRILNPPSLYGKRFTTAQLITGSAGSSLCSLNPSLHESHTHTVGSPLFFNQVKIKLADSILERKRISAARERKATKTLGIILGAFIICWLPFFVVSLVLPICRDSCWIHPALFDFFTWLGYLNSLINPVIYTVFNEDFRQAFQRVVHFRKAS
Source text: as §1

5-HT2C = molecular target: T4, 5-HT2C (Homo sapiens, UniProt P28335); settings: Agonist, Receptor, read-out: % of specific inhibition
T4 construct: purchased Eurofins Discovery (Cerep) BioPrint Profile Panel
Source text: as §1

5-HT4e = molecular target: T5, 5-HT4e (Homo sapiens, UniProt Q13639); settings: Antagonist, Receptor, read-out: % of specific inhibition
T5 construct: purchased Eurofins Discovery (Cerep) BioPrint Profile Panel
Source text: as §1

5-HT7 = molecular target: T6, 5-HT7 (Homo sapiens, UniProt P34969); settings: Agonist, Receptor, read-out: % of specific inhibition
T6 construct: purchased Eurofins Discovery (Cerep) BioPrint Profile Panel
Source text: as §1

A2B = molecular target: T7, A2B (Homo sapiens, UniProt P29275); settings: Antagonist, Receptor
T7 construct: purchased Eurofins Discovery (Cerep) BioPrint Profile Panel
T7 sequence (P29275 whole entry): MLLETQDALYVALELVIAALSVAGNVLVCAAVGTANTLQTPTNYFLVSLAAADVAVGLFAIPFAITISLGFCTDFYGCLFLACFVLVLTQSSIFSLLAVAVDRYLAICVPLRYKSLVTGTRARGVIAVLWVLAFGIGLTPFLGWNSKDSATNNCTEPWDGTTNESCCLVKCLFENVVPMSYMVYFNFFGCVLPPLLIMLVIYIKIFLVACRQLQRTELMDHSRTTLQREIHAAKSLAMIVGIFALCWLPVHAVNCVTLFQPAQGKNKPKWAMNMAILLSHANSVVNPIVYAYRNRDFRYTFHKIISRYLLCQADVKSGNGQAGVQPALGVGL
Source text: as §1

AT1 = molecular target: T8, AT1 (Homo sapiens, UniProt P30556); settings: Antagonist, Receptor, read-out: % of specific inhibition
T8 construct: purchased Eurofins Discovery (Cerep) BioPrint Profile Panel
Source text: as §1

B2 = molecular target: T9, B2 (Homo sapiens, UniProt P30411); settings: Agonist, Receptor, read-out: % of specific inhibition
T9 construct: purchased Eurofins Discovery (Cerep) BioPrint Profile Panel
Source text: as §1

CB2 = molecular target: T10, CB2 (Homo sapiens, UniProt P34972); settings: Agonist, Receptor, read-out: % of specific inhibition
T10 construct: purchased Eurofins Discovery (Cerep) BioPrint Profile Panel
Source text: as §1

[1] = system: Ca2+ channel (diltiazem site); settings: 10 μM; Antagonist (diltiazem site); Ion Channel
Source text: as §1

CysLT1 (LTD4) = molecular target: T11, CysLT1 (LTD4) (Homo sapiens, UniProt Q9Y271); settings: Agonist, Receptor, read-out: % of specific inhibition
T11 construct: purchased Eurofins Discovery (Cerep) BioPrint Profile Panel
T11 sequence (Q9Y271 whole entry): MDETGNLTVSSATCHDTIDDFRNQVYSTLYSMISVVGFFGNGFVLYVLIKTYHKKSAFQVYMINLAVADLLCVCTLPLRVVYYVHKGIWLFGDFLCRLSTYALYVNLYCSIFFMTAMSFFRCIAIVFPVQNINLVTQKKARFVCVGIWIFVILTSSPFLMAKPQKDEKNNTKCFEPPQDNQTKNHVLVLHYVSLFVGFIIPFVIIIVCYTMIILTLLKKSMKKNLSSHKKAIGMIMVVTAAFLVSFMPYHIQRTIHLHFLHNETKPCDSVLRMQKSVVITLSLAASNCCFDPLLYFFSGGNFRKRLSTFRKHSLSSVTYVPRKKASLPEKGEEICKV
Source text: as §1

D2S = molecular target: T12, D2S (Homo sapiens, UniProt P14416); settings: Agonist, Receptor, read-out: % of specific inhibition
T12 construct: purchased Eurofins Discovery (Cerep) BioPrint Profile Panel
T12 sequence (P14416 1-414 isoform P14416-2): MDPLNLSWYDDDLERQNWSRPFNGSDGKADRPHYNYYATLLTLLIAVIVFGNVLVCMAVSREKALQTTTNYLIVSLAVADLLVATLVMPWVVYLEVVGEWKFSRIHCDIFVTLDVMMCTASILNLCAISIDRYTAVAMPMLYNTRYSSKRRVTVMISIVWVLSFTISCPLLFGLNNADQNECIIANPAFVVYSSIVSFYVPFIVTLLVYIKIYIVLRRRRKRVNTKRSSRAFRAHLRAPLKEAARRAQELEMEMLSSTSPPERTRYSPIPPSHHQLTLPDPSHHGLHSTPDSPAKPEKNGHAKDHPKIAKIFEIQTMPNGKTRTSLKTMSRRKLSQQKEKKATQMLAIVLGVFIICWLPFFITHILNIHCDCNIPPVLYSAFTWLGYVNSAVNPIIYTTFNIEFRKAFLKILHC
Source text: as §1

Estrogen Erα = molecular target: T13, Estrogen Erα (Homo sapiens, UniProt P03372); settings: Agonist, Receptor, read-out: % of specific inhibition
T13 construct: purchased Eurofins Discovery (Cerep) BioPrint Profile Panel
Source text: as §1

GABA transporter = settings: 10 μM, Antagonist
Source text: as §1

GABAA1 (h) (α1, β2, γ2) = molecular target: T14, GABAA1 (h) (α1, β2, γ2) (Homo sapiens, UniProt P14867+P47870); settings: Agonist, Receptor, read-out: % of specific inhibition
T14 construct: purchased Eurofins Discovery (Cerep) BioPrint Profile Panel
Source text: as §1

GR = molecular target: T15, GR (Homo sapiens, UniProt P04150); settings: Agonist, Receptor, read-out: % of specific inhibition
T15 construct: purchased Eurofins Discovery (Cerep) BioPrint Profile Panel
Source text: as §1

H2 = molecular target: T16, H2 (Homo sapiens, UniProt P25021); settings: Antagonist, Receptor, read-out: % of specific inhibition
T16 construct: purchased Eurofins Discovery (Cerep) BioPrint Profile Panel
Source text: as §1

H4 = molecular target: T17, H4 (Homo sapiens, UniProt Q9H3N8); settings: Agonist, Receptor, read-out: % of specific inhibition
T17 construct: purchased Eurofins Discovery (Cerep) BioPrint Profile Panel
Source text: as §1

IP (PGI2) = molecular target: T18, IP (PGI2) (Homo sapiens, UniProt P43119); settings: Agonist, Receptor, read-out: % of specific inhibition
T18 construct: purchased Eurofins Discovery (Cerep) BioPrint Profile Panel
Source text: as §1

LXRβ = molecular target: T19, LXRβ (Homo sapiens, UniProt P55055); settings: Agonist, Receptor, read-out: % of specific inhibition
T19 construct: purchased Eurofins Discovery (Cerep) BioPrint Profile Panel
Source text: as §1

M2 = molecular target: T20, M2 (Homo sapiens, UniProt P08172); settings: Antagonist, Receptor, read-out: % of specific inhibition
T20 construct: purchased Eurofins Discovery (Cerep) BioPrint Profile Panel
T20 sequence (P08172 whole entry): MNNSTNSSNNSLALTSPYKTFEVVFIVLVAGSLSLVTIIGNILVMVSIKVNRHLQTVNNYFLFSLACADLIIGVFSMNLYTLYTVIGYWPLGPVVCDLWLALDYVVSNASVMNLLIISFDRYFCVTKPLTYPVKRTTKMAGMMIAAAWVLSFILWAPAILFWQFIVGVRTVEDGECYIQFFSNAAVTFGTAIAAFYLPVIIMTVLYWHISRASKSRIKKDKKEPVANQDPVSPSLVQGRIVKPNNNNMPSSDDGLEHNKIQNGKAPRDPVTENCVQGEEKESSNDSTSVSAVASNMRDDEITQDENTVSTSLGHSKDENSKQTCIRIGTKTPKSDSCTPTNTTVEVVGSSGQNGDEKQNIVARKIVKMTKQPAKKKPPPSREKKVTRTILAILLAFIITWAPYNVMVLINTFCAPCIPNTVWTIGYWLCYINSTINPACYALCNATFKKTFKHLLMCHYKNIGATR
Source text: as §1

M4 = molecular target: T21, M4 (Homo sapiens, UniProt P08173); settings: Antagonist, Receptor, read-out: % of specific inhibition
T21 construct: purchased Eurofins Discovery (Cerep) BioPrint Profile Panel
Source text: as §1

MAO-A = molecular target: T22, MAO-A (Rattus norvegicus, UniProt P21396); settings: Antagonist, Non-Kinase Enzyme, read-out: % of specific inhibition
T22 construct: purchased Eurofins Discovery (Cerep) BioPrint Profile Panel
T22 sequence (P21396 whole entry): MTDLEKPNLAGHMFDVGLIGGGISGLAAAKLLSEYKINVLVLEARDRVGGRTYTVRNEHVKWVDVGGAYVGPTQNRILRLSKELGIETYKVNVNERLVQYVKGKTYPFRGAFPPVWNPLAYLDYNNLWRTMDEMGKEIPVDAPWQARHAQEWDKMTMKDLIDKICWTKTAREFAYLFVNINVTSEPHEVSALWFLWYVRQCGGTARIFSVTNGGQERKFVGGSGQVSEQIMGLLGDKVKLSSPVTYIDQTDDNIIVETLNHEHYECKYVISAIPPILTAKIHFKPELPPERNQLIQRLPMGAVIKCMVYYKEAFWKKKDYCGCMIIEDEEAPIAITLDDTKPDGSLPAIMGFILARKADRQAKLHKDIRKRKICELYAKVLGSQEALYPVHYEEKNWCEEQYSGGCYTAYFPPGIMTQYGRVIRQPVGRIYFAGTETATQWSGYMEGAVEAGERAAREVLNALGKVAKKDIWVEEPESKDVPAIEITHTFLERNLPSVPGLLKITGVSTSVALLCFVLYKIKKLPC
Source text: as §1

MC1 = molecular target: T23, MC1 (Mus musculus, UniProt Q01727); settings: Agonist, Receptor, read-out: % of specific inhibition
T23 construct: purchased Eurofins Discovery (Cerep) BioPrint Profile Panel
Source text: as §1

MC3 = molecular target: T24, MC3 (Homo sapiens, UniProt P41968); settings: Agonist, Receptor, read-out: % of specific inhibition
T24 construct: purchased Eurofins Discovery (Cerep) BioPrint Profile Panel
T24 sequence (P41968 whole entry): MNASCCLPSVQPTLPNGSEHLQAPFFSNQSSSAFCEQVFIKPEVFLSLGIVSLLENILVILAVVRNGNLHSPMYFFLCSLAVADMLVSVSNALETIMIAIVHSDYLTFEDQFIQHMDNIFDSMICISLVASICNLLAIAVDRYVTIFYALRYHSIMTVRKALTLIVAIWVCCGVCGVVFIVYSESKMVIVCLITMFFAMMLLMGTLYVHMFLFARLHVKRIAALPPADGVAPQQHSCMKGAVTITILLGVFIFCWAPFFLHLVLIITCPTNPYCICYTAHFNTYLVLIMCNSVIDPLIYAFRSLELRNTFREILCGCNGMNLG
Source text: as §1

MCH1 = molecular target: T25, MCH1 (Homo sapiens, UniProt Q99705); settings: Agonist, Receptor, read-out: % of specific inhibition
T25 construct: purchased Eurofins Discovery (Cerep) BioPrint Profile Panel
Source text: as §1

MT3 (ML2) = settings: 10 μM; Agonist; Receptor
Source text: as §1

NK1 = molecular target: T26, NK1 (Homo sapiens, UniProt P25103); settings: Agonist, Receptor, read-out: % of specific inhibition
T26 construct: purchased Eurofins Discovery (Cerep) BioPrint Profile Panel
Source text: as §1

NOP (ORL1) = molecular target: T27, NOP (ORL1) (Homo sapiens, UniProt P41146); settings: Agonist, Receptor, read-out: % of specific inhibition
T27 construct: purchased Eurofins Discovery (Cerep) BioPrint Profile Panel
Source text: as §1

PAF = molecular target: T28, PAF (Homo sapiens, UniProt P25105); settings: Agonist, Receptor, read-out: % of specific inhibition
T28 construct: purchased Eurofins Discovery (Cerep) BioPrint Profile Panel
Source text: as §1

PPARγ = molecular target: T29, PPARγ (Homo sapiens, UniProt P37231); settings: Agonist, Receptor, read-out: % of specific inhibition
T29 construct: purchased Eurofins Discovery (Cerep) BioPrint Profile Panel
T29 sequence (P37231 whole entry): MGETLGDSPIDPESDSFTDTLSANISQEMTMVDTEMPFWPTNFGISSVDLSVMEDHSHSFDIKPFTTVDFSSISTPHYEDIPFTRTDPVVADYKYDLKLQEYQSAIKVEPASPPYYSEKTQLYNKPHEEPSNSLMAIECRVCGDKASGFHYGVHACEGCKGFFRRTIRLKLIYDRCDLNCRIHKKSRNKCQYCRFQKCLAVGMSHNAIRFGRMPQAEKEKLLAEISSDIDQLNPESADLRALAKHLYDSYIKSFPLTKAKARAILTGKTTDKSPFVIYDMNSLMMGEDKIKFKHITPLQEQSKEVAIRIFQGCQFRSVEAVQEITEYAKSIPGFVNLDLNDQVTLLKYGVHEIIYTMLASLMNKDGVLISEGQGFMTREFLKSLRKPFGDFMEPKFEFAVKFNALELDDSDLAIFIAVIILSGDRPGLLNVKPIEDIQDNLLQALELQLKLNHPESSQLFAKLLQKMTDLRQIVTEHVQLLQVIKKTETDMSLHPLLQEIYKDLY
Source text: as §1

RARα = molecular target: T30, RARα (Homo sapiens, UniProt P10276); settings: Agonist, Receptor, read-out: % of specific inhibition
T30 construct: purchased Eurofins Discovery (Cerep) BioPrint Profile Panel
Source text: as §1

TNF-α = settings: 10 μM; Agonist; Receptor
Source text: as §1

UT = molecular target: T31, UT (Homo sapiens, UniProt Q9UKP6); settings: Agonist, Receptor, read-out: % of specific inhibition
T31 construct: purchased Eurofins Discovery (Cerep) BioPrint Profile Panel
T31 sequence (Q9UKP6 whole entry): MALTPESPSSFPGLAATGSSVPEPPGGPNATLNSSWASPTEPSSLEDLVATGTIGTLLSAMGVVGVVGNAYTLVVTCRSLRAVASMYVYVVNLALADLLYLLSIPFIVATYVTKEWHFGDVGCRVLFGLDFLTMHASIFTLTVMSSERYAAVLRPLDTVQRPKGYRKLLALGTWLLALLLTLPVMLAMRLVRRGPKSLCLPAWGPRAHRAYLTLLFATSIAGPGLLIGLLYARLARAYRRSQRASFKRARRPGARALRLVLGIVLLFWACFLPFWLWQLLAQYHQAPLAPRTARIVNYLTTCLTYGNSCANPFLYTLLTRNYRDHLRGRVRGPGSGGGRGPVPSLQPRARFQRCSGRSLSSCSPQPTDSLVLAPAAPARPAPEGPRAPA
Source text: as §1

choline transporter = molecular target: T32, choline transporter (Homo sapiens, UniProt Q9GZV3); settings: Antagonist, read-out: % of specific inhibition
T32 construct: purchased Eurofins Discovery (Cerep) BioPrint Profile Panel
Source text: as §1

kainate = settings: 10 μM; Agonist; Ion Channel
Source text: as §1

sst1 = molecular target: T33, sst1 (Homo sapiens, UniProt P30872); settings: Agonist, Receptor, read-out: % of specific inhibition
T33 construct: purchased Eurofins Discovery (Cerep) BioPrint Profile Panel
Source text: as §1

µ (MOP) = molecular target: T34, µ (MOP) (Homo sapiens, UniProt P35372); settings: Agonist, Receptor, read-out: % of specific inhibition
T34 construct: purchased Eurofins Discovery (Cerep) BioPrint Profile Panel
Source text: as §1

α2A = molecular target: T35, α2A (Homo sapiens, UniProt P08913); settings: Antagonist, Receptor, read-out: % of specific inhibition
T35 construct: purchased Eurofins Discovery (Cerep) BioPrint Profile Panel
Source text: as §1

α2C = molecular target: T36, α2C (Homo sapiens, UniProt P18825); settings: Antagonist, Receptor, read-out: % of specific inhibition
T36 construct: purchased Eurofins Discovery (Cerep) BioPrint Profile Panel
T36 sequence (P18825 whole entry): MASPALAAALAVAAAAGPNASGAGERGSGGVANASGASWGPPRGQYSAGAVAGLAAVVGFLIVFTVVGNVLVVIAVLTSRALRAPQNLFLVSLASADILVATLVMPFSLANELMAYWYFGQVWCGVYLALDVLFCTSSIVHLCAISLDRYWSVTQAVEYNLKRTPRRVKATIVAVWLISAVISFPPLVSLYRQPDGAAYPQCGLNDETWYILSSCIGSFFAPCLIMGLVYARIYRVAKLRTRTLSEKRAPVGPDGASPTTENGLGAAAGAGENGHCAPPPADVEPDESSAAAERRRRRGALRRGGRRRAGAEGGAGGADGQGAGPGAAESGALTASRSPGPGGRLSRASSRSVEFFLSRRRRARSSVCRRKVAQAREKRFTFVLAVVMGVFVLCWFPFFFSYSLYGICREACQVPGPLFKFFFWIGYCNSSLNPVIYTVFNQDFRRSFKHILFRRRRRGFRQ
Source text: as §1

β1 = molecular target: T37, β1 (Homo sapiens, UniProt P08588); settings: Agonist, Receptor, read-out: % of specific inhibition
T37 construct: purchased Eurofins Discovery (Cerep) BioPrint Profile Panel
Source text: as §1

β2 = molecular target: T38, β2 (Homo sapiens, UniProt P07550); settings: Antagonist, Receptor, read-out: % of specific inhibition
T38 construct: purchased Eurofins Discovery (Cerep) BioPrint Profile Panel
Source text: as §1

β3 = molecular target: T39, β3 (Homo sapiens, UniProt P13945); settings: Antagonist, Receptor, read-out: % of specific inhibition
T39 construct: purchased Eurofins Discovery (Cerep) BioPrint Profile Panel
Source text: as §1

## O=c1cc(-c2ccccc2)oc2c(O)c(O)ccc12 [7,8-DHF, 7,8-dihydroxyflavone]
5-HT transporter
  inhibition at 10 µM: -4%
5-HT1A
  inhibition at 10 µM: -26%
5-HT1D
  inhibition at 10 µM: -8%
5-HT2C
  inhibition at 10 µM: -4%
5-HT4e
  inhibition at 10 µM: -11%
5-HT7
  inhibition at 10 µM: 4%
A2B; 10 μM
  % Inhibition of Control Specific Binding: 78.3%
A2B; read-out: % Inhibition of Control Specific Binding
  inhibition at 10 µM: 78%
AT1
  inhibition at 10 µM: 24%
B2
  inhibition at 10 µM: -6%
CB2
  inhibition at 10 µM: -3%
[1]
  % of specific inhibition: -15%
CysLT1 (LTD4)
  inhibition at 10 µM: -10%
D2S
  inhibition at 10 µM: -15%
Estrogen Erα
  inhibition at 10 µM: 7%
GABA transporter
  % of specific inhibition: -2%
GABAA1 (h) (α1, β2, γ2)
  inhibition at 10 µM: 12%
GR
  inhibition at 10 µM: -1%
H2
  inhibition at 10 µM: -37%
H4
  inhibition at 10 µM: -4%
IP (PGI2)
  inhibition at 10 µM: 17%
LXRβ
  inhibition at 10 µM: 49%
M2
  inhibition at 10 µM: -2%
M4
  inhibition at 10 µM: -5%
MAO-A
  inhibition at 10 µM: 35%
MC1
  inhibition at 10 µM: -5%
MC3
  inhibition at 10 µM: -5%
MCH1
  inhibition at 10 µM: -12%
MT3 (ML2)
  % Inhibition of Control Specific Binding: 86%
NK1
  inhibition at 10 µM: 11%
NOP (ORL1)
  inhibition at 10 µM: 11%
PAF
  inhibition at 10 µM: -20%
PPARγ
  inhibition at 10 µM: 21%
RARα
  inhibition at 10 µM: -16%
TNF-α
  % of specific inhibition: 2%
UT
  inhibition at 10 µM: -9%
Choline transporter
  inhibition at 10 µM: 5%
kainate
  % of specific inhibition: 26%
sst1
  inhibition at 10 µM: 2%
µ (MOP)
  inhibition at 10 µM: -2%
α2A
  inhibition at 10 µM: -5%
α2C
  inhibition at 10 µM: 1%
β1
  inhibition at 10 µM: -5%
β2
  inhibition at 10 µM: -5%
β3
  inhibition at 10 µM: -25%
